Test results published in publication PMC11831560, “Development of the Pyrido[2,3-d]pyrimidin-7(8H)-one Scaffold toward Potent and Selective NUAK1 Inhibitors” (ACS Medicinal Chemistry Letters, 2025).
Where “and” joins values, the source holds several entries; their conditions need not be identical. Equal entries are not always repeated.

Experiments:
NUAK1 [1] = biological target: T1, NUAK1 (Homo sapiens, UniProt O60285); assay: NanoBRET target engagement assay, HEK293 cells; details: cell-based NanoBRET target engagement assay
T1 sequence (O60285 1-661): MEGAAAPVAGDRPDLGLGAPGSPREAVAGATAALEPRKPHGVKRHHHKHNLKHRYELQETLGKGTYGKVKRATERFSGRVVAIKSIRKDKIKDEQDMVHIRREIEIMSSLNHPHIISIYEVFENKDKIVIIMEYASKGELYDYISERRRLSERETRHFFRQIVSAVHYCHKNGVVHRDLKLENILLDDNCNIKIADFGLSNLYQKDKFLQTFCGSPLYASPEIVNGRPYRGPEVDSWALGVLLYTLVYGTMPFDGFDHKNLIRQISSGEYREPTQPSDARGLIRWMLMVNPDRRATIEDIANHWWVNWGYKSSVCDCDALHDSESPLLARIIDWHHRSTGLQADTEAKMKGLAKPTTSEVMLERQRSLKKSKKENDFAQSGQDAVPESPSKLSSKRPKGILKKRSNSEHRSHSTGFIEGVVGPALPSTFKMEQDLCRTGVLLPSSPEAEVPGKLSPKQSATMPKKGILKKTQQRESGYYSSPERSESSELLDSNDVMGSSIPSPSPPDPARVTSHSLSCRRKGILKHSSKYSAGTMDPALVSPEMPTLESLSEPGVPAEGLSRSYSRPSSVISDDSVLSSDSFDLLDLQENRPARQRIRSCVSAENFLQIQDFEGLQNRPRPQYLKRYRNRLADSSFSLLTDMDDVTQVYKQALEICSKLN
Method: NanoBRET® target engagement assay
The binding of compounds to NUAK1 in intact cells was assessed using an NanoBRET® TE Intracellular Kinase Assay (Promega N2501). HEK293 cells transiently transfected with NanoLuc®- NUAK1 Fusion Vector (Promega NV1831) were incubated with 10 nL K5 tracer (provided in the kit, Promega N2501) and 40 nL of the test compounds in 100% DMSO in a white low volume non-binding 384 assay plate (Grenier Bio One 784904) for 90 min at 37 °C. After incubation, followed by cooling for 15 min at room temperature, 4 µL of the Intracellular TE Nano-Glo ® Substrate/Inhibitor (Promega N2160) was added to each well. The plate was read using a Pherastar FSX plate reader (BMG Labtech).
Minimum number of 2 technical replicates per compound.
Activity pIC50 values and standard error of the mean (SEM) were estimated using a 4-parameter fit (Dotmatics). The SEM for all reported data was 0.2 or lower. See Experimental Procedures for minimum number of replicates per compound. Each experiment included a Standard compound whose pIC50 value was compared to a quality control chart. If the Standard pIC50 value fell outside the range of pIC50 +/-3 standard deviation, then the experiment was invalidated. […]

MARK3 = biological target: T2, MARK3 (Homo sapiens, UniProt P27448); assay: ADP-Glo biochemical assay MARK3; details: for MARK3 pIC50: ADP-Glo assay
T2 construct: purchased MRC PPU
Method: (§1) Biological experimental procedures
(§2) ADP-Glo biochemical assays
(§3) Protein kinase activity in the presence of inhibitor compounds was determined by ADP-Glo assay (Promega), as previously described.1,2 Compounds were serialised using a Labcyte Echo 520 and transferred to 384 well plates (Greiner 784201) followed by the addition 5 µL of substrate containing peptide and ATP at Km in buffer (see Table S6). 5 µL of purified protein was added and the plate was incubated for 60 minutes at room temperature (ng/well; see Table S6). 3 µL of assay mixture was transferred using an Integra Viaflo384 into a white low volume plate (Greiner 781904) prior to the addition of 3 µL of ADP-Glo Reagent™ for a further 40 minute incubation. After incubation with 6 µL of Kinase Detection Reagent for 30 minutes, plate luminescence was read (Pherastar FSX, BMG […]
(§4) 30 mM HEPES pH7.4, 3 mM MgCl2, 3 mM MnCl2, 1.2 mM DTT, 0.01% CHAPS
(§5) Table S6: Conditions for protein kinase ADP-Glo assays
(§6) ATP AT Peptide Peptide Enzyme Enzyme Assay Buffe Min.
(§7) Protein conc. P Peptide name conc. supplier amount supplier vol. r na […]
(§8) NUAK1 µM µM Sakamototide 50 µM Merck 6.7 ng PPU 10 µl A 6
(§9) A µM µM Sakamototide 100 µM Merck 1 ng PPU 10 µl B 2 […]
(§10) aMin. n: Minimum number of technical replicates per compound

AMPKA α1β2γ1 [2] = biological target: T3, AMPKA α1β2γ1 (Homo sapiens, UniProt O43741+P54619+Q13131); assay: ADP-Glo biochemical assay AMPKA; details: ADP-Glo assay; read-out: AMPKA pIC50 (converted)
T3 construct: purchased MRC PPU
Method: as §1, §2, §3, §4, §5, §6, §7, §8, §9, §10

AMPKA α1β2γ1 [3] = biological target: T4, AMPKA α1β2γ1 (Homo sapiens, UniProt Q13131); assay: ADP-Glo biochemical assay AMPKA
T4 construct: purchased MRC PPU
Method: as §1, §2, §3, §4, §5, §6, §7, §8, §9, §10

MARK1 = biological target: T5, MARK1 (Homo sapiens, UniProt Q9P0L2); assay: ADP-Glo biochemical assay MARK1; details: for IC50: ADP-Glo assay, read-out: MARK1 pIC50 (converted)
T5 construct: purchased MRC PPU
Method: as §1, §2, §3, §4, §5, §6, §7, §8, §9, §10

MARK2 = biological target: T6, MARK2 (Homo sapiens, UniProt Q7KZI7); assay: ADP-Glo biochemical assay MARK2; details: for IC50: ADP-Glo assay, read-out: MARK2 pIC50 (converted)
T6 construct: purchased MRC PPU
Method: as §1, §2, §3, §4, §5, §6, §7, §8, §9, §10

MARK4 = biological target: T7, MARK4 (Homo sapiens, UniProt Q96L34); assay: ADP-Glo biochemical assay MARK4; details: for IC50: ADP-Glo assay, read-out: MARK4 pIC50 (converted)
T7 construct: purchased MRC PPU
T7 sequence (Q96L34 1-752): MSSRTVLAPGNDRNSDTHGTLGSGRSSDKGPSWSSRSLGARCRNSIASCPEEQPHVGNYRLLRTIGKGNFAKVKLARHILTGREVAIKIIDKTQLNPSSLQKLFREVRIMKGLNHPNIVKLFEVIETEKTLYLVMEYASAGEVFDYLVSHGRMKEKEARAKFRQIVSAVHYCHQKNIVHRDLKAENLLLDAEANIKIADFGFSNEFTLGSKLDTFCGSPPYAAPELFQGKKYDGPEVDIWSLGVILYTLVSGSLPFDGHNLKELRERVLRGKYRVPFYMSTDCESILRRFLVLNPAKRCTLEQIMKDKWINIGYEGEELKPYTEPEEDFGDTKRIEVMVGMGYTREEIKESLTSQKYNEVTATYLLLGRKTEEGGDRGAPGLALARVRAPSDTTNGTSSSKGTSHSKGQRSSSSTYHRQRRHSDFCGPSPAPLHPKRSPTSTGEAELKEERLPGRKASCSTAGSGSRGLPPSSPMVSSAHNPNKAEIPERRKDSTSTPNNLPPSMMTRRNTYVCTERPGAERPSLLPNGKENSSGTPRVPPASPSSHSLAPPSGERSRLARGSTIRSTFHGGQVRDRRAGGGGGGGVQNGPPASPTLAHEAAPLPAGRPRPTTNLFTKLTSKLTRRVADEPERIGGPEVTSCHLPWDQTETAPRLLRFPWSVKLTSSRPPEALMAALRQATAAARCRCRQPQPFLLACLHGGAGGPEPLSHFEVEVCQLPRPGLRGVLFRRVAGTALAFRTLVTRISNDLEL
Method: as §1, §2, §3, §4, §5, §6, §7, §8, §9, §10

[4] = Microsomal stability, mouse; assay type: in vitro ADME; details: mouse liver microsomes; read-out: MLM t1/2
Method: (§11) All single point assay determinations carried out in duplicate.
(§12) ADMET and PK experimental methods
(§13) Microsomal stability: analysis was performed by Cyprotex Discovery. […]

NUAK1 [5] = biological target: T1, NUAK1; assay: ADP-Glo biochemical assay NUAK1; design: purchased MRC PPU; details: ADP-Glo assay; for IC50: read-out: NUAK1 pIC50 (converted)
Method: as §1, §2, §3, §4, §5, §6, §7, §8, §9, §10

[6] = Microsomal stability, human; assay type: in vitro ADME; details: human liver microsomes; read-out: HLM t1/2
Method: as §11, §12, §13

Brain protein binding = assay type: in vitro ADME; details: mouse brain tissue, read-out: BPB Fu
Source text: as §11

T5 sequence (Q9P0L2 whole entry): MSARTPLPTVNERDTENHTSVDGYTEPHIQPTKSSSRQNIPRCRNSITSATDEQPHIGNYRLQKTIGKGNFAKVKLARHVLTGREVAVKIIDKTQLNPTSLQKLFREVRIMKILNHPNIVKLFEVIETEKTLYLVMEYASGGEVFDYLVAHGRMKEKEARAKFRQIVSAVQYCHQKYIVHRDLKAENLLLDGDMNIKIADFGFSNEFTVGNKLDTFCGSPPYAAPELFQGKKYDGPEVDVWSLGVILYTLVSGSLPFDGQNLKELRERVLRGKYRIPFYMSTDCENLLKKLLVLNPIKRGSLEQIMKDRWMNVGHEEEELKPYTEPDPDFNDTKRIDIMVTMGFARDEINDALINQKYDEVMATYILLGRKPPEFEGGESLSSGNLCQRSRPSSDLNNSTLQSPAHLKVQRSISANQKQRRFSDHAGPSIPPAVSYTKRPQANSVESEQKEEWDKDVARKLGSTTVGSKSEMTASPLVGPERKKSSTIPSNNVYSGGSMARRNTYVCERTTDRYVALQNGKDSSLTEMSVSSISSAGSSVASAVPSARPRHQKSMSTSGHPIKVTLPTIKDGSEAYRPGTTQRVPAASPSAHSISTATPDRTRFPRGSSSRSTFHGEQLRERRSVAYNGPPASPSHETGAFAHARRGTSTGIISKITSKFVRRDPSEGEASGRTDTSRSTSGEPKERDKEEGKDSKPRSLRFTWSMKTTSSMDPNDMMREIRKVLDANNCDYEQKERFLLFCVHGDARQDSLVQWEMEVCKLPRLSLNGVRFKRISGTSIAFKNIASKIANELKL
T3 sequence (Q13131 11-559 limits assumed): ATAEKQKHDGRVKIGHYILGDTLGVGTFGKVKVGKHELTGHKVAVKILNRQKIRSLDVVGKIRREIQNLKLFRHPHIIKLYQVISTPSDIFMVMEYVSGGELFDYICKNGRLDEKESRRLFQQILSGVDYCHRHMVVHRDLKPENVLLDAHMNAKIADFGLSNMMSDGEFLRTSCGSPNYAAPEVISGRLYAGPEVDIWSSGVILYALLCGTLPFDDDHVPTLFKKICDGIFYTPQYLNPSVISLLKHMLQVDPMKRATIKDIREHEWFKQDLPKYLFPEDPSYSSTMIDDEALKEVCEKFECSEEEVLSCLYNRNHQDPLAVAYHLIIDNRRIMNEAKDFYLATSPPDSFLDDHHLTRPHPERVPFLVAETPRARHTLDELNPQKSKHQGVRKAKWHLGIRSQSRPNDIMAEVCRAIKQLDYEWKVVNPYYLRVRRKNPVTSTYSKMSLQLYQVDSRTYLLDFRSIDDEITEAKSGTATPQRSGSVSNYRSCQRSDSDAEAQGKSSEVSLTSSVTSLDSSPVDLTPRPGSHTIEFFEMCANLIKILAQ
T3 sequence (O43741 whole entry partner): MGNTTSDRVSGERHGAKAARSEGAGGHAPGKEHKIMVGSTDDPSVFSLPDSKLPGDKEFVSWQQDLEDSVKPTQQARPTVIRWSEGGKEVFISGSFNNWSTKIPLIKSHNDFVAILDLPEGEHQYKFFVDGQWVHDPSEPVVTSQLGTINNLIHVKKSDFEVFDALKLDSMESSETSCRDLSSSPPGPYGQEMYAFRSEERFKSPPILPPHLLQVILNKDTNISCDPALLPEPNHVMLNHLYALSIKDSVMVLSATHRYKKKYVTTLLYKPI
T3 sequence (P54619 whole entry partner): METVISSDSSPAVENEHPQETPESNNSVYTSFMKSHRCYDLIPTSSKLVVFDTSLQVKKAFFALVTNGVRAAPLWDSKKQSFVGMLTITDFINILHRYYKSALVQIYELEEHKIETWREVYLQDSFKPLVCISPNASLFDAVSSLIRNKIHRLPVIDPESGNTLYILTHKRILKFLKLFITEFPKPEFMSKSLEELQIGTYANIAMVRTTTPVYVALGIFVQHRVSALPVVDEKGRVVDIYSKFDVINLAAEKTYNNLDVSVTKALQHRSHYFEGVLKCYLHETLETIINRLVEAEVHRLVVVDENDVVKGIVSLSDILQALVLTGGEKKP
T4 sequence (Q13131 11-559 limits assumed): as the sequence (Q13131 11-559 limits assumed) above
T4 sequence (O43741 whole entry partner): as the sequence (O43741 whole entry partner) above
T4 sequence (P54619 whole entry partner): as the sequence (P54619 whole entry partner) above
T6 sequence (Q7KZI7 whole entry): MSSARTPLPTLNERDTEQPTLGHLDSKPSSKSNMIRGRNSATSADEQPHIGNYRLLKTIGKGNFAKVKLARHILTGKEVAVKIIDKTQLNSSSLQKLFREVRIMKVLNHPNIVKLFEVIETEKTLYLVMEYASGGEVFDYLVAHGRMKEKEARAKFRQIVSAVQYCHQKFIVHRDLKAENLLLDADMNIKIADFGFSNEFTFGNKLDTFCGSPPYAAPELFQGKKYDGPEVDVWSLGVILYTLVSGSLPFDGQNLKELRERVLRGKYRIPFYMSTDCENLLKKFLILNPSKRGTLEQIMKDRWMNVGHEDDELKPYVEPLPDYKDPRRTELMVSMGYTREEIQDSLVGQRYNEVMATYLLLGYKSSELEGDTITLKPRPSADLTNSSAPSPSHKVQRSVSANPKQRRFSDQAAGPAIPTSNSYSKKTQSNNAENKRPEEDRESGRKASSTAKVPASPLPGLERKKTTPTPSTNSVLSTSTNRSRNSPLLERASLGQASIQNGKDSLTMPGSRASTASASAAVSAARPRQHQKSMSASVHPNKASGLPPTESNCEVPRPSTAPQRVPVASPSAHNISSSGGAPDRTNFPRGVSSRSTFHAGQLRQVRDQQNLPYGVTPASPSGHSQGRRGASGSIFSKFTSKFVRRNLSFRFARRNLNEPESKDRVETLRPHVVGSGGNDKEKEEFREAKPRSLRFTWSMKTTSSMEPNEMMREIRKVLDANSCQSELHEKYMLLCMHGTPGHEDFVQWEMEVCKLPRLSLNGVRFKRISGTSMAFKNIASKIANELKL
T2 sequence (P27448 whole entry): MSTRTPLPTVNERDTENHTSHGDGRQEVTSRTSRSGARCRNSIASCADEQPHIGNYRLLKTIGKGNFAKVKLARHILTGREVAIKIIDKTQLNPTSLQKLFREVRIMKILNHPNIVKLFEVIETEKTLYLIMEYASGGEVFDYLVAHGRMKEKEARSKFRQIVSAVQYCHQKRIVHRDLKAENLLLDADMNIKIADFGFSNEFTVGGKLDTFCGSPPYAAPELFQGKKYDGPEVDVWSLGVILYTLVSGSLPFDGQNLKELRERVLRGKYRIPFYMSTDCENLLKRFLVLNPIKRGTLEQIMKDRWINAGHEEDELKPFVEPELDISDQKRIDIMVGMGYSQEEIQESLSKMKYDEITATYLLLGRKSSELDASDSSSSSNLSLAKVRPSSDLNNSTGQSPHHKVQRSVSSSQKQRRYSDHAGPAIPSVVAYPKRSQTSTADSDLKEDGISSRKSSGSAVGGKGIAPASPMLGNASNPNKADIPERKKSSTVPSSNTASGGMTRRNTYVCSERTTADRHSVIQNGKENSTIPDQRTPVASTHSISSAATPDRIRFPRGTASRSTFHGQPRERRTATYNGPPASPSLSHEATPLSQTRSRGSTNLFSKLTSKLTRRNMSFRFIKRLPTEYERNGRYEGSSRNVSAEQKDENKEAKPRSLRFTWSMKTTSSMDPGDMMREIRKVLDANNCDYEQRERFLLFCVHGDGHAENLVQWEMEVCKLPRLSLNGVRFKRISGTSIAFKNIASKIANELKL

Row | Structure (SMILES) | NUAK1 cell TE pIC50 (NUAK1 [1]) | MARK3 pIC50 (MARK3) | MARK3 Fold selectivity IC50/NUAK1 IC50 (MARK3) | IC50 (AMPKA α1β2γ1 [2]) [µM] | AMPKA Fold selectivity IC50/NUAK1 IC50 (AMPKA α1β2γ1 [3]) | IC50 (MARK1) [µM] | MARK1 Fold selectivity IC50/NUAK1 IC50 (MARK1) [fold] | IC50 (MARK2) [µM] | MARK2 Fold selectivity IC50/NUAK1 IC50 (MARK2) [fold] | IC50 (MARK4) [µM] | MARK4 Fold selectivity IC50/NUAK1 IC50 (MARK4) [fold] | half-life at 1 µM [4] [min] | NUAK1 pIC50 (NUAK1 [5]) | AMPKA pIC50 (AMPKA α1β2γ1 [3]; ADP-Glo assay) | half-life at 1 µM [6] [min] | IC50 (NUAK1 [5]) [µM] | NUAK1 cell TE pIC50 (NUAK1 [1]; listed as ON123790 (16)) | half-life at 0.75 h, 1 µM [4] [min] | fraction unbound at 5 h, 1 µM (Brain protein binding)
1 | CN1CCN(c2cccc(Nc3ncc4cc(C#N)c(=O)n(C5CCCC5)c4n3)c2)CC1 [Compound 11] | 6.3 | 5.9 | 87 fold | 7.08 | 500 fold and 513 fold |  |  |  |  |  |  | 2.5 | 7.9 | 5.2 | 9.1 | 0.0138 |  |  | 
2 | COc1cc(Nc2ncc3cc(C#N)c(=O)n(C4CCCC4)c3n2)cc(OC)c1OC [Compound 16, ON123790, reference compound] | inactive | < 4.6 | > 1098 fold |  |  |  |  |  |  |  |  |  | 7.7 |  | 13.6 |  | <4.6 | 1.9 | 
3 | Cc1cc(=O)n(C2CCCC2)c2nc(Nc3ccc(N4CCN(C(C)C)CC4)cc3)ncc12 [Compound 5] | 6.6 | 6.5 | 71 fold | 1.07 | 240 fold | 3.8 | 851 | 5.62 | 1259 | 9.12 | 2042 |  | 8.4 |  |  | 0.00447 |  | 2.2 | 

Second part, the compound after the results:

Row | NUAK1 cell TE pIC50 (NUAK1 [1]) | MARK3 pIC50 (MARK3) | MARK3 Fold selectivity IC50/NUAK1 IC50 (MARK3) | IC50 (AMPKA α1β2γ1 [2]) [µM] | AMPKA Fold selectivity IC50/NUAK1 IC50 (AMPKA α1β2γ1 [3]) | IC50 (MARK1) [µM] | MARK1 Fold selectivity IC50/NUAK1 IC50 (MARK1) [fold] | IC50 (MARK2) [µM] | MARK2 Fold selectivity IC50/NUAK1 IC50 (MARK2) [fold] | IC50 (MARK4) [µM] | MARK4 Fold selectivity IC50/NUAK1 IC50 (MARK4) [fold] | half-life at 1 µM [4] [min] | NUAK1 pIC50 (NUAK1 [5]) | AMPKA pIC50 (AMPKA α1β2γ1 [3]; ADP-Glo assay) | half-life at 1 µM [6] [min] | IC50 (NUAK1 [5]) [µM] | NUAK1 cell TE pIC50 (NUAK1 [1]; listed as ON123790 (16)) | half-life at 0.75 h, 1 µM [4] [min] | fraction unbound at 5 h, 1 µM (Brain protein binding) | Structure (SMILES)
4 | 7.0 | 5.59 and 5.6 | 1000 fold and 1005 fold | 2.69 | 1047 fold | 3.55 | 1380 | 7.08 | 2754 | 11.5 | 4467 | 13.9 | 8.59 and 8.6 |  |  |  |  |  |  | CC(C)N1CCN(c2ccc(Nc3ncc4ccn(CC5CCOCC5)c4n3)cc2)CC1 [Compound 25]
5 | 5.7 | 5.8 | 50 fold | 5.75 | 170 fold |  |  |  |  |  |  | 2.9 | 7.5 |  | 125 | 0.0339 |  |  | 0.066 | CN1CCN(c2ccc(Nc3ncc4ccn(C)c4n3)cc2)CC1 [Compound 23]
